Experimental findings from ChEMBL document CHEMBL3779894, “Synthesis and in Vitro Screening of New Series of 2,6-Dipeptidyl-anthraquinones: Influence of Side Chain Length on HIV-1 Nucleocapsid Inhibitors” (J Med Chem, 2016) are described below.

The test system of test [1] is Human immunodeficiency virus 1. As to the kind of experiment: Binding affinity to HIV-1 29-mer TAR RNA assessed as 3:1 compound-RNA complex formation at 10 uM by ESI-MS analysis.
Test [2] relates to Human immunodeficiency virus 1. As to the kind of experiment: Selectivity index, ratio of melting temperature for HIV-1 29-mer TAR RNA to HIV-1 cTAR DNA.
Test [3] relates to Human immunodeficiency virus 1. As to the kind of experiment: Binding affinity to HIV-1 cTAR DNA-29-mer TAR RNA duplex assessed as increase in melting temperature at 10 uM by fluorescence quenching assay.
Test [4] deals with Human immunodeficiency virus 1. The test can be described thus: Binding affinity to HIV-1 29-mer TAR RNA assessed as increase in melting temperature at 10 uM by fluorescence quenching assay.
Test [5] is described as follows: Inhibition of recombinant full length HIV-1 nucleocapsid assessed as inhibition of nucleocapsid-mediated melting of cTAR DNA measured 3 times with 1 min interval by FRET based assay. Details: species or system Human immunodeficiency virus 1.
A short description of test [6]: Inhibition of recombinant full length HIV-1 nucleocapsid assessed as inhibition of TAR RNA/cTAR DNA annealing preincubated with oligonucleotides for 15 mins followed by nucleocapsid addition measured after 15 mins by NAME assay. The arrangement: species or system Human immunodeficiency virus 1.
For test [7], the system named is Human immunodeficiency virus 1. As to the kind of experiment: Inhibition of recombinant full length HIV-1 nucleocapsid assessed as inhibition of TAR RNA /cTAR DNA annealing at 50 to 100 uM preincubated with oligonucleotides for 15 mins followed by nucleocapsid addition measured after 15 mins by NAME assay.
In test [8] the test system is Human immunodeficiency virus 1. The test can be described thus: Binding affinity to HIV-1 cTAR DNA assessed as increase in melting temperature at 10 uM by fluorescence quenching assay.
Test [9] relates to Human immunodeficiency virus 1. The test can be described thus: Binding affinity to HIV-1 cTAR DNA assessed as 4:1 […] complex formation at 10 uM by ESI-MS analysis.
The nature of test [10]: Inhibition of recombinant full length HIV-1 nucleocapsid assessed as inhibition of nucleocapsid-mediated melting of TAR RNA measured 3 times with 1 min interval by FRET based assay. Details: species or system Human immunodeficiency virus 1.
In test [11] the test system is Human immunodeficiency virus 1. As to the kind of experiment: Binding affinity to HIV-1 cTAR DNA at 10 uM by ESI-MS analysis.
Test [12] relates to Human immunodeficiency virus 1. The test can be described thus: Inhibition of recombinant full length HIV-1 nucleocapsid assessed as inhibition of TAR RNA /cTAR DNA annealing at 20 to 50 uM preincubated with oligonucleotides for 15 mins followed by nucleocapsid addition measured after 15 mins by NAME assay.
The test system of test [13] is Human immunodeficiency virus 1. As to the kind of experiment: Inhibition of recombinant full length HIV-1 nucleocapsid assessed as inhibition of TAR RNA/cTAR DNA annealing upto 100 uM preincubated with oligonucleotides for 15 mins followed by nucleocapsid addition measured after 15 mins by NAME assay.
Test [14] has as its system Human immunodeficiency virus 1. As to the kind of experiment: Binding affinity to HIV-1 cTAR DNA assessed as 2:1 […] complex formation at 10 uM by ESI-MS analysis.
Test [15] has as its system Human immunodeficiency virus 1. As to the kind of experiment: Binding affinity to HIV-1 29-mer TAR RNA assessed as 1:1 compound-RNA complex formation at 10 uM by ESI-MS analysis.
Test [16] relates to Human immunodeficiency virus 1. The test can be described thus: Binding affinity to HIV-1 29-mer TAR RNA at 10 uM by ESI-MS analysis.

Activity calls are given as the source filed them. No cut-off for these calls is given here.

As for `C[C@H](NC(=O)C(N)CCCCN)C(=O)Nc1ccc2c(c1)C(=O)c1ccc(NC(=O)[C@H](C)NC(=O)C(N)CCCCN)cc1C2=O` (some centres undefined), the result in test [1], in test [3], in test [4], in test [8] and in test [9] was Active. Further, the Ratio in test [2] was found to be 0.56. In addition, the figures for the IC50 in test [5], in test [6] and in test [10] were 2.68 µM, 80.4 µM and 6.61 µM, respectively. In addition, the inhibition result in [7] is “Active”.
Consider `C[C@H](NC(=O)C(N)CCCN)C(=O)Nc1ccc2c(c1)C(=O)c1ccc(NC(=O)[C@H](C)NC(=O)C(N)CCCN)cc1C2=O` (some centres undefined), for which the result in test [1], in [3], in [4], in test [8] and in [9] was Active. Further, the Ratio in test [2] came to 0.58. Also, the 50% inhibitory concentration (IC50) (as a rule, the concentration that gives 50% inhibition) in test [5] was 1.93 µM; in [6] it was 49.1 µM; in [10], 4.91 µM. The inhibition result in test [7] is “Active”.
Regarding `NCCCC(N)C(=O)NCC(=O)Nc1ccc2c(c1)C(=O)c1ccc(NC(=O)CNC(=O)C(N)CCCN)cc1C2=O` (centres undefined), the outcome in test [11], in test [1], in test [3], in [4] and in test [8] was Active. Also, the inhibition entry in test [12] was “Active”. The Ratio in test [2] was 0.72. The IC50 in [5] was determined as 1.81 µM; in test [6] it was 54.1 µM; in test [10], 2.62 µM.
On to `NCC(N)C(=O)NCC(=O)Nc1ccc2c(c1)C(=O)c1ccc(NC(=O)CNC(=O)C(N)CN)cc1C2=O` (centres undefined), for which the outcome in [3], in test [4] and in [8] was Active. Moreover, the IC50 in test [5] turned out to be 3.81 µM; in test [6], 103 µM; in test [10], 4.22 µM. Besides, in [7], the inhibition result was “Active”.
As for `NCCC(=O)NCC(=O)Nc1ccc2c(c1)C(=O)c1ccc(NC(=O)CNC(=O)CCN)cc1C2=O`, the result in test [3], in [4] and in test [8] was Active. Further, the IC50 in test [5] was 4.06 µM; in test [6], greater than 100 µM; in [10], 6.42 µM. Besides, the inhibition entry in [7] was “Active”.
Consider `NCCC(N)C(=O)NCC(=O)Nc1ccc2c(c1)C(=O)c1ccc(NC(=O)CNC(=O)C(N)CCN)cc1C2=O` (centres undefined), for which the Ratio in [2] was 0.97. Besides, the result in test [3], in test [4] and in test [8] was Active. Moreover, the IC50 in [5] is 4.61 µM; in test [6] it was 81.4 µM; in test [10], 3.87 µM. Besides, in test [7], the inhibition result is “Active”.
On to `C[C@H](NC(=O)C1(N)CCNCC1)C(=O)Nc1ccc2c(c1)C(=O)c1ccc(NC(=O)[C@H](C)NC(=O)C3(N)CCNCC3)cc1C2=O`, for which the IC50 was determined as 14.6 µM in [5] and 40.2 µM in test [10]. The inhibition result in test [13] is “inactive”.
`C[C@H](NC(=O)C(N)CN)C(=O)Nc1ccc2c(c1)C(=O)c1ccc(NC(=O)[C@H](C)NC(=O)C(N)CN)cc1C2=O` (some centres undefined): the outcome in test [4] and in test [8] was inactive. Also, the IC50 in [5] came to 44.1 µM; in test [10], 67.1 µM. For the same compound, the inhibition result in [13] was “inactive”.
For the compound `C[C@H](NC(=O)C1CCNCC1)C(=O)Nc1ccc2c(c1)C(=O)c1ccc(NC(=O)[C@H](C)NC(=O)C3CCNCC3)cc1C2=O`, the result in test [14] and in test [15] was Active. Moreover, the results for the half-inhibitory concentration (IC50) in [5] and in test [10] were 12 µM and 20.8 µM, respectively. In addition, the inhibition entry in test [13] is “inactive”.
With `C[C@H](NC(=O)C(N)CCN)C(=O)Nc1ccc2c(c1)C(=O)c1ccc(NC(=O)[C@H](C)NC(=O)C(N)CCN)cc1C2=O` (some centres undefined), in test [2], the Ratio came out at 0.5. Also, the result in [3], in [4] and in test [8] was Active. Further, the results for the IC50 in [5], in test [6] and in test [10] were 4.28 µM, greater than 100 µM and 6.9 µM, respectively. The inhibition result in [13] is “inactive”.
With `Nc1ccc(CC(N)C(=O)NCC(=O)Nc2ccc3c(c2)C(=O)c2ccc(NC(=O)CNC(=O)C(N)Cc4ccc(N)cc4)cc2C3=O)cc1` (centres undefined), the result in [3], in [4] and in test [8] was inactive. The figures for the IC50 in [5], in test [6] and in test [10] were 7.78 µM, greater than 100 µM and 7.72 µM, respectively. In addition, the inhibition result in test [13] was “inactive”.
Turning to `NC1(C(=O)NCC(=O)Nc2ccc3c(c2)C(=O)c2ccc(NC(=O)CNC(=O)C4(N)CCNCC4)cc2C3=O)CCNCC1`, the outcome in test [3], in test [4] and in test [8] was Active. For the same compound, the concentration for half-maximal inhibition (IC50) was 5.13 µM in [5], greater than 100 µM in [6] and 7.79 µM in test [10]. Moreover, the inhibition entry in test [7] was “Active”.
`C[C@H](NC(=O)CCN)C(=O)Nc1ccc2c(c1)C(=O)c1ccc(NC(=O)[C@H](C)NC(=O)CCN)cc1C2=O`: the IC50 in test [5] was 12.7 µM; in [10], 39.5 µM. Besides, the inhibition entry in test [13] was “inactive”.
Take `NCCCCC(N)C(=O)NCC(=O)Nc1ccc2c(c1)C(=O)c1ccc(NC(=O)CNC(=O)C(N)CCCCN)cc1C2=O` (centres undefined): the result in test [11], in test [3], in [4], in [16] and in test [8] was Active. Moreover, the inhibition result in test [12] was “Active”. Besides, the Ratio in [2] is 0.72. Further, the IC50 in test [5] is 1.11 µM; in [6], 23.5 µM; in [10], 2.12 µM.
`NC[C@H]1CC[C@H](C(=O)NCC(=O)Nc2ccc3c(c2)C(=O)c2ccc(NC(=O)CNC(=O)[C@H]4CC[C@H](CN)CC4)cc2C3=O)CC1`: the result in test [3], in test [4] and in [8] was inactive. For the same compound, the values for the IC50 in test [5] and in test [10] were 9.75 µM and 11.3 µM, respectively.
For `C[C@H](NC(=O)C(N)Cc1ccc(N)cc1)C(=O)Nc1ccc2c(c1)C(=O)c1ccc(NC(=O)[C@H](C)NC(=O)C(N)Cc3ccc(N)cc3)cc1C2=O` (some centres undefined), the concentration for half-maximal inhibition (IC50) worked out at 7.53 µM in [5] and 7.29 µM in test [10]. The inhibition entry in test [13] was “inactive”.
The corresponding values for `C[C@H](NC(=O)[C@H]1CC[C@H](CN)CC1)C(=O)Nc1ccc2c(c1)C(=O)c1ccc(NC(=O)[C@H](C)NC(=O)[C@H]3CC[C@H](CN)CC3)cc1C2=O` are 14.6 µM, 14.8 µM and “inactive”.
`O=C(CNC(=O)C1CCNCC1)Nc1ccc2c(c1)C(=O)c1ccc(NC(=O)CNC(=O)C3CCNCC3)cc1C2=O`: the result in [14], in test [3], in test [4], in [8] and in test [15] was Active. Also, the IC50 in test [5] and in [10] was 10.7 µM in each case. For the same compound, the inhibition entry in [13] was “inactive”.
